Reference: patent US9944583B2, “Methods for ameliorating and preventing central nervous system inflammation” (THE REGENTS OF THE UNIVERSITY OF CALIFORNIA, priority 2007, dated 2018)
“Also recorded” adds a separate entry of the source.

Assays:
[1] = test system: primary neuronal cultures; test: DHE oxidation (superoxide and/or hydrogen peroxide production) in primary neuronal cultures exposed to ketamine; type: cell-based, mouse
[2] = test system: PV-interneurons in mouse prefrontal cortex; test: two-day ketamine treatment of mice: oxidized DHE, parvalbumin and GAD67 in prefrontal cortex; type: in vivo; details: apocynin 5 mg/kg/day 1 week in drinking water; C3 1.0 mg/kg/day one month by mini-pumps
Description: Animals and treatments. […] Male C57BL6 mice were obtained from Jackson Labs, Bar Harbor, Me., at 8-12 weeks and housed in our facility until 15 weeks when they were used for experiments. Ketamine (30 mg/kg) was applied intraperitoneally (IP) on two consecutive days at around 4 pm. DHE was applied 30 min after the last ketamine injection as described (19, 20). Briefly, two serial i.p. injections of freshly prepared dihydroethidium (27 mg/kg) are given at 30 minute intervals. Eighteen hours later, mice are anesthetized with inhaled halothane, and perfused intracardially with cold saline followed by 4% paraformaldehyde in PBS. The Nox inhibitor, apocynin (5 mg/kg/day) was given in the drinking water for a total of seven days, with an assumed intake of […] H2O/mouse/day, and ketamine was applied on the last two days. […] All animal studies were approved by the Animal Care Program at the University of California, San Diego, and are in accordance the PHS Guide for the Care and Use of Laboratory Animals, USDA Regulations, and the AVMA Panel on Euthanasia.
Immunohistochemistry: Brains were frontally sliced in a vibratome into 50 μm coronal sections encompassing the prefrontal cortex region (from Bregma 2.0 to 1.3). Sequential slices were processed for floating-section double immunohistochemistry for the detection of parvalbumin and GAD67. Antigen retrieval was performed by incubation of the slices in 1% sodium borohydride for 15 min as described (see reference 34, below), followed by washing in PBS and incubation in 10% normal goat serum in PBS for 16 h at 4° C. Primary antibodies (Calbindin: 1:5000: Calretinin: 1:2000; Parvalbumin: 1:3000, all rabbit polyclonals from Swant, Bellinzona, Switzerland. GAD67: 1:1000, from Chemicon-Millipore, Temecula, Calif.) were diluted in 2% normal goat serum in PBS and applied to the slices for 18 h at 4° C., after which slices were washed in PBS and incubated in a 1:1000 dilution of ALEXAFLUOR™ (Molecular Probes, Invitrogen, Carlsbad, Calif.) conjugated goat anti-rabbit (568) or goat anti-mouse (488) antibodies for 1 hr at room temperature (rt). Slices were washed in PBS and mounted sequentially in glass slides using […]™ (Vector Laboratories, Burlingame, Calif.), covered with a coverslip and allowed to dry for at least 24 h before confocal imaging.
Six slices were analyzed per animal.
Analysis of superoxide and/or hydrogen peroxide production by confocal imaging of in vivo dihydroethidium (DHE) oxidation. Mice will be injected intraperitoneally (i.p.) with dihydroethidium.

[3] = test system: pyramidal layer of CA1 in the aged hippocampus; test: in vivo superoxide production in CA1 of the aged hippocampus (DHE confocal imaging); parameters: species or system mouse; details: old mice; C3 by oral administration; apocynin
Description: Analysis of superoxide and/or hydrogen peroxide production by confocal imaging of in vivo dihydroethidium (DHE) oxidation. Mice will be injected intraperitoneally (i.p.) with dihydroethidium. Briefly, two serial i.p. injections of freshly prepared dihydroethidium (27 mg/kg) are given at 30 minute intervals. Eighteen hours later, mice are anesthetized with inhaled halothane, and are perfused intracardially with cold saline followed by 4% paraformaldehyde in PBS. Brains are removed and post-fixed in 2% paraformaldehyde for >24 h. Following fixation, brains are cut into 50 μm coronal sections and co-labeled with the appropriate primary and secondary antibodies for fluorescence visualization. […] First, an image is taken in the fluorescence channel of the ICC-fluorophor and then the channel is switched to image fluorescence from DHE oxidation. […] Using the image pairs for each field and MetaMorph software, an analyst blind to the group circles the outline of each ICC-labeled cell and then switches to the DHE oxidation image. The average fluorescence intensity for each cell of interest is logged, and values averaged to determine the mean fluorescence/cell.

PV-interneurons [4] = test: PV-interneuron counts in old mice after long-term SOD-mimetic treatment; type: in vivo, mouse; details: treatment of animals from middle age (OM+C3)
Description: Aging was accompanied by a statistically significant decrease in PV-interneuron number in all regions analyzed, as shown in FIG. 41B. […] Statistical significance was determined by ANOVA followed by Tukey's test.

PV-interneurons [5] = test: parvalbumin and GAD67 immunoreactivity in PV-interneurons in primary neuronal cultures; details: co-exposure with ketamine 24 h; muscimol 10 μM, C3, apocynin 0.5 mM

tris malonic acid C60 [C3]
effect on ketamine-mediated increase in ROS / free radical production (DHE fluorescence) [1]: prevented | effect on ketamine-mediated increase in oxidized DHE [1]: prevented | effect on ketamine-induced increase in oxidized DHE in vivo [2]: prevented | effect on ketamine-mediated loss of parvalbumin immunoreactivity in PV-interneurons in vivo [2]: completely prevented | effect on elevated levels of superoxide in the pyramidal layer of CA1 in the aged hippocampus [3]: prevented | effect on age-related reduction of PV-interneuron numbers (PV-interneurons [4]): prevented the reduction of PV-interneuron numbers in CA1 and CA3, but not in DG | effect on ketamine-mediated loss of parvalbumin and GAD67 immunoreactivity in PV-interneurons (PV-interneurons [5]): prevented; also recorded: attenuated
